Reference: ChEMBL document CHEMBL3352323, “Lead optimization of a pyrazole sulfonamide series of Trypanosoma brucei N-myristoyltransferase inhibitors: identification and evaluation of CNS penetrant compounds as potential treatments for stage 2 human African trypanosomiasis” (J Med Chem, 2014)
Active and inactive are the calls of the source. No cut-off for these calls is given here.

Legend:
[1] = test system: MRC5; assay: cells; settings: Homo sapiens, MRC5, 69 h
Description: Antiproliferative activity against human MRC5 cells assessed as reduction cell viability incubated for 69 hrs by rezasurin dye based assay

[2] = Inhibition of Trypanosoma brucei N-myristoyltransferase assessed as transfer of [3H]-myristic acid to a biotinylated substrate peptide (GCGGSKVKPQPPQAK(biotin)-amide by scintillation proximity assay
[3] = Selectivity index, IC50 for human N-myristoyltransferase to EC50 for Trypanosoma brucei; format: functional
[4] = test system: Trypanosoma brucei; assay: microbe, parasite or virus in culture; settings: BSF427, 69 h
Description: Antitrypanosomal activity against Trypanosoma brucei BSF427 expressing VSG118 infected in human MRC5 cells assessed as reduction cell viability incubated for 69 hrs by rezasurin dye based assay

[5] = molecular target: T1, Glycylpeptide N-tetradecanoyltransferase 1 (Homo sapiens, UniProt P30419); assay: Inhibition of human N-myristoyltransferase 1 assessed as transfer of [3H]-myristic acid to a biotinylated substrate peptide (GCGGSKVKPQPPQAK(biotin)-amide by scintillation proximity assay
T1 sequence (P30419 whole entry): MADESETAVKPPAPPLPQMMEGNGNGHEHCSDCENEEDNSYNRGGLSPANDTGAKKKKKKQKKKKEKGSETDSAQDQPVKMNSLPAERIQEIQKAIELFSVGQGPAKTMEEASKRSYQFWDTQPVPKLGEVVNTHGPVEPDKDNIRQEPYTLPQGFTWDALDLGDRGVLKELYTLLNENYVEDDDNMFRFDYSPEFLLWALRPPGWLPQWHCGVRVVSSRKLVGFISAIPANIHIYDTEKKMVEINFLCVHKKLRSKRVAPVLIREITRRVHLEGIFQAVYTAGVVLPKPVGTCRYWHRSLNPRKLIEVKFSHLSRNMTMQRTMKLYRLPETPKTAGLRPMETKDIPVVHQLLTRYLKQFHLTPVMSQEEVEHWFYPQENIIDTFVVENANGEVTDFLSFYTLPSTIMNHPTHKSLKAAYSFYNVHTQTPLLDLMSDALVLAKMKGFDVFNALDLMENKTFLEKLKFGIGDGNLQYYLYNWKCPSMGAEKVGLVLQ

[6] = Ratio of drug level in brain to blood in mdr1a-deficient mouse; format: ADME, organism-based; settings: brain and blood, read-out: BBR
[7] = Ratio of drug level in brain to blood in wild type NMRI mouse at 2 mg free base/kg, iv by UPLC-MS/MS method; format: ADME, organism-based; settings: brain and blood, read-out: BBR
[8] = test system: Trypanosoma brucei brucei; assay: Trypanocidal activity against bloodstream form of Trypanosoma brucei beucei GVR35 infected in NMRI mouse stage 2 human African trypanosomiasis model at 25 mg/kg, po bid for 10 days; format: functional, organism-based; parameters: dose 25 mg/kg
[9] = test system: Trypanosoma brucei brucei; assay: Trypanocidal activity against bloodstream form of Trypanosoma brucei beucei GVR35 infected in NMRI mouse stage 2 human African trypanosomiasis model at 50 mg/kg, po bid for 8 days; format: functional, organism-based; parameters: dose 50 mg/kg
[10] = test system: Mus musculus; assay: Toxicity in bloodstream form of Trypanosoma brucei beucei GVR35 infected NMRI mouse stage 2 human African trypanosomiasis model at 50 mg/kg, po bid for 5 days; format: organism-based; parameters: dose 50 mg/kg, route oral; settings: in vivo, 120 h
[11] = test system: Trypanosoma brucei brucei; assay: Trypanocidal activity against Trypanosoma brucei beucei GVR35 infected in NMRI mouse acute model dosed twice daily orally for 4 days; format: functional
[12] = test system: Trypanosoma brucei brucei; assay: Trypanocidal activity against Trypanosoma brucei beucei S427 infected in NMRI mouse acute model dosed twice daily orally for 4 days; format: functional
[13] = test system: Mus musculus; assay: Maximum tolerated dose in orally twice daily dosed mouse; format: ADME, organism-based; settings: in vivo, po
[14] = test system: Mus musculus; assay: Toxicity in bloodstream form of Trypanosoma brucei beucei GVR35 infected NMRI mouse stage 2 human African trypanosomiasis model at 50 mg/kg, po bid for 8 days; format: organism-based; parameters: dose 50 mg/kg, route oral; settings: in vivo, 192 h
[15] = test system: Trypanosoma brucei brucei; assay: Trypanocidal activity against bloodstream form of Trypanosoma brucei beucei GVR35 infected in NMRI mouse stage 2 human African trypanosomiasis model at 150 mg/kg, po bid for 5 days; format: functional, organism-based; parameters: dose 150 mg/kg

SMILES	EC50 [1] [µM]	IC50 [2] [nM]	EC50 [4] [nM]	also measured
Cc1nn(C)c(C)c1NS(=O)(=O)c1ccc(CCCN2CCN(C)CC2)cc1	> 50	120	750	Selectivity Index [3]: 4.7; IC50 [5]: 3.5 µM
Cc1nn(C)c(C)c1NS(=O)(=O)c1c(Cl)cc(Br)cc1Cl	> 50	500	16000	Kp [6]: < 0.1; Kp [7]: < 0.1; IC50 [5]: 7.3 µM
Cc1nn(C)c(C)c1N(C(F)F)S(=O)(=O)c1c(Cl)cc(CCCOC[C@@H]2CCCCN2C)cc1Cl	3.9	2		
Cc1nn(C)c(C)c1NS(=O)(=O)c1c(Cl)cc(CCCC2CCN(C)CC2)cc1Cl	2.2	2	2	
Cc1nn(C)cc1NS(=O)(=O)c1c(Cl)cc(-c2ccnc(N3CCNCC3)c2)cc1Cl	0.25	4	2	
Cc1nn(C)c(CC(C)C)c1NS(=O)(=O)c1c(Cl)cc(-c2ccnc(N3CCNCC3)c2)cc1Cl	0.64	6	5	
Cc1nn(C)c(C)c1N(C)S(=O)(=O)c1c(Cl)cc(Br)cc1Cl	27.2	330	5100	Kp [6]: 3.7; Kp [7]: 3.7; IC50 [5]: 3.58 µM
Cc1nn(C)c(C)c1N(C(F)F)S(=O)(=O)c1c(Cl)cc(CCCN2CCN3CCC[C@@H]3C2)cc1Cl	3.1	2		
Cc1nn(C)c(C)c1N(C(F)F)S(=O)(=O)c1c(Cl)cc(CCCCC2CCN(C)CC2)cc1Cl				inhibition [8]: inactive; inhibition [9]: inactive; Activity [10]: Toxic; MCD [11]: 25 mg/kg; MCD [12]: 6 mg/kg; MTD [13]: 50 mg/kg; Activity [14]: Toxic
Cc1nn(C)c(C)c1N(CC(F)(F)F)S(=O)(=O)c1c(Cl)cc(CCCC2CCN(C)CC2)cc1Cl				inhibition [15]: inactive
Cc1nn(C)c(C)c1NS(=O)(=O)c1c(Cl)cc(CCCCC2CCN(C)CC2)cc1Cl	0.18	1	0.5	
Cc1nn(C)c(C)c1NS(=O)(=O)c1ccc(CCCC2CCN(C)CC2)cc1	18.7	7	30	
Cc1nn(C)c(C)c1NS(=O)(=O)c1c(Cl)cc(CCCCC2CCNCC2)cc1Cl	0.37	3	0.6	
Cc1nn(C)c(C)c1NS(=O)(=O)c1ccc(CCCCC2CCNCC2)cc1	5.3	6	9	
Cc1nn(C)c(C)c1N(C(F)F)S(=O)(=O)c1c(Cl)cc(CCCOC[C@H]2CCCN2C)cc1Cl	3.2	2		
